Target: TAR RNA
Assay: In vitro binding of resin-bound compounds to TAR RNA (OD260 of unbound RNA)
Parameters: species or system HIV
Settings: in vitro assay; compounds of formula I on TentaGel beads incubated with TAR RNA overnight at 4° C. in TK buffer; read-out: Kd (nM), binding constants
Protocol: Binding of compounds of formula I and V to TAR RNA was measured by evaluating their inhibition of TAR-TAT complex formation in the presence of increasing levels of the compound to be tested. The compounds of formula I were tested in an in vitro assay; the compounds of formula V were tested in an in vivo assay.
The TAR RNA used corresponds to the minimal sequence required for TAT responsiveness in vivo. This 29-residue oligonucleotide has the sequence: 5′-[…]-3′ (SEQ ID NO.: 1). TAR RNA was prepared by in vitro transcription. A “top strand” single-stranded DNA oligomer having the sequence 5′-TAATACGACTCACTATAG-3′ (SEQ ID NO.: 2) was annealed to a “bottom strand” single-stranded DNA template having the following sequence: 3′-[…]-5′ (SEQ ID NO.: 3), thereby generating a double-stranded region corresponding to a promoter sequence recognized by T7 RNA polymerase. Transcription was carried out in transcription buffer (40 mM Tris-HCl, pH 8.1, 1 mM spermidine, 0.01% Triton®X-100, 5 mM dithiothreitol, 4 mM each of ATP, GTP, CTP, and UTP at 37° C. for 4 to 5 hours. Reactions were performed in a volume of 0.02 ml containing 8 pmole of template (top strand annealed to bottom strand) and 40 to 60 units of T7 RNA polymerase. Transcription was terminated by adding an equal volume of loading buffer (9M urea, 1 mmol EDTA, 0.1M bromophenol blue in 1XTBE buffer; TBE is 45 mmol trisborate at pH 8). Product RNA was purified by electrophoresis through a denaturing 20% polyacrylamide gel containing 8M urea. RNA was extracted from the gel, precipitated, dissolved in dithylpyrocarbonate-treated water, and stored at −20° C. until used.
In vitro assay conditions: Compounds AA-DU were synthesized on TentaGel S—NH2 (4.6 mmole). All Fmoc-amino acids were purchased from Bachem (Torrance, Calif.). 1-hydroxybenzotriazole (HOBT) and diisopropylcarbodiimide (DIPCDI) were obtained from Aldrich Chemical Co., Milwalkee, Wis. Piperidine and trifluoroacetic acid were purchased from Applied Biosystems Division, Perkin-Elmer. Compounds AA-DU were synthesized manually according to standard solid-phase peptide synthesis protocols. Coupling efficiencies of residues at each step were monitored by Kaiser test. Deprotection of trimer peptides was carried out in 10% water in trifluoroacetic acid (1 mL) for 16 hours at room temperature. After filtration of solvents, the resin was washed with water (1 mL×4), DMF (1 mL×4), dichloromethane (1 mL×4), and dried under reduced pressure. The compounds attached to the resin (10 beads) were placed in an Eppendorf tube and washed with TK buffer ([…]). The beads were suspended in TK buffer ([…]) and incubated with TAR RNA ([…]) overnight at 4° C. The suspension was centrifuged and the supernatant containing unbound RNA was transferred to a cuvette for OD260 measurements. The UV absorbance was measured by a Shimadzu UV-1601 spectrometer. Equilibrium concentrations of RNA were determined from these measurements. Given that the initial concentrations of ligand and RNA are known, and assuming simple bimolecular receptor/substrate binding, dissociation constant (KD) was calculated from straightforward equations.

Point of comparison: NCCCC[C@@H](N)COC(=O)N[C@H](CCCCN)COC(=O)N[C@H](CCCCN)COC(N)=O [Compound AB, Carbamic acid 6-amino-2-[6-amino-2-(2,6-diamino-hexyloxycarbonylamino)-hexyloxycarbonylamino]-hexyl ester], Kd 523 nM. Against it:
- NCCCCCCCN(CC(=O)N[C@@H](CCCCN)COC(N)=O)C(=O)CNCCCCN [Compound DQ, Carbamic acid 6-amino-2-{2-[[2-(4-amino-butylamino)-acetyl]-(7-amino-heptyl)-amino]-acetylamino}-hexyl ester] — 12-fold higher, 6140 nM
- NCCCCCNCC(=O)N(CCCCCN)CC(=O)N[C@H](CCCCN)COC(N)=O [Compound BF, Carbamic acid 6-amino-2-(2-{(5-amino-pentyl)-[2-(5-amino-pentylamino)-acetyl]-amino}-acetylamino)-hexyl ester] — 3.6-fold lower, 147 nM
- NCCCCCCCN(CC(=O)N[C@@H](CCCCN)COC(N)=O)C(=O)[C@H](N)CCCCN [Compound DN, Carbamic acid 6-amino-2-{2-[(7-amino-heptyl)-(2,6-diamino-hexanoyl)-amino]-acetylamino}-hexyl ester] — within 1.5-fold, 678 nM
- NCCCC[C@@H](COC(N)=O)NC(=O)OC[C@@H](CCCCN)NC(=O)[C@@H](N)CCCCN [Compound CC, Carbamic acid 6-amino-2-[6-amino-2-(2,6-diamino-hexanoylamino)-hexyloxycarbonylamino]-hexyl ester] — within 1.5-fold, 567 nM
- NCCCCCN(CC(=O)N[C@H](CCCCN)COC(N)=O)C(=O)OC[C@H](N)CCCCN (stereo in doubt) [Compound BC, Carbamic acid 6-amino-2-{2-[(5-amino-pentyl)-(2,6-diamino-hexyloxycarbonyl)-amino]-acetylamino}-hexyl ester] — 2.9-fold lower, 183 nM
- NCCCCCNCC(=O)N[C@H](CCCCN)COC(=O)N[C@H](CCCCN)COC(N)=O [Compound AE, Carbamic acid 6-amino-2-{6-amino-2-[2-(5-amino-pentylamino)-acetylamino]-hexyloxycarbonylamino}-hexyl ester] — 2.1-fold higher, 1110 nM
- NCCCCCCCN(CC(=O)N[C@H](CCCCN)COC(N)=O)C(=O)CNCCCCN [Compound BQ, Carbamic acid 6-amino-2-{2-[[2-(4-amino-butylamino)-acetyl]-(7-amino-heptyl)-amino]-acetylamino}-hexyl ester] — 2.2-fold lower, 235 nM
- NCCCCCCCN(CC(=O)N[C@@H](CCCCN)COC(N)=O)C(=O)OC[C@H](N)CCC(N)=O [Compound DS, Carbamic acid 6-amino-2-{2-[(2-amino-4-carbamoyl-butoxycarbonyl)-(7-amino-heptyl)-amino]-acetylamino}-hexyl ester] — 6-fold higher, 3150 nM
- NCCCCCN(CC(=O)N[C@H](CCCCN)COC(N)=O)C(=O)[C@@H](N)CCCCN [Compound BD, Carbamic acid 6-amino-2-{2-[(5-amino-pentyl)-(2,6-diamino-hexanoyl)-amino]-acetylamino}-hexyl ester] — 2.2-fold lower, 235 nM
- NCCCCCN(CC(=O)N[C@@H](CCCCN)COC(N)=O)C(=O)OC[C@@H](N)CCCCN [Compound DB, Carbamic acid 6-amino-2-{2-[(5-amino-pentyl)-(2,6-diamino-hexyloxycarbonyl)-amino]-acetylamino}-hexyl ester] — 2-fold lower, 256 nM
- NCCCCCN(CC(=O)N[C@@H](CCCCN)COC(N)=O)C(=O)[C@@H](N)CCCCN [Compound DD, Carbamic acid 6-amino-2-{2-[(5-amino-pentyl)-(2,6-diamino-hexanoyl)-amino]-acetylamino}-hexyl ester] — within 1.5-fold, 567 nM
- NCCCCCCCN(CC(=O)N[C@H](CCCCN)COC(N)=O)C(=O)[C@H](N)CCCCN [Compound BN, Carbamic acid 6-amino-2-{2-[(7-amino-heptyl)-(2,6-diamino-hexanoyl)-amino]-acetylamino}-hexyl ester] — 6-fold higher, 3150 nM
- NCCCCNCC(=O)N[C@@H](CCCCN)C(=O)N[C@H](CCCCN)COC(N)=O [Compound BZ, Carbamic acid 6-amino-2-{6-amino-2-[2-(4-amino-butylamino)-acetylamino]-hexanoylamino}-hexyl ester] — 4-fold lower, 130 nM
- NCCCCCCCN(CC(=O)N[C@H](CCCCN)COC(N)=O)C(=O)OC[C@H](N)CCC(N)=O [Compound BS, Carbamic acid 6-amino-2-{2-[(2-amino-4-carbamoyl-butoxycarbonyl)-(7-amino-heptyl)-amino]-acetylamino}-hexyl ester] — within 1.5-fold, 639 nM
- NCCCCNCC(=O)N[C@@H](CCCCN)COC(=O)N[C@@H](CCCCN)COC(N)=O [Compound CP, Carbamic acid 6-amino-2-{6-amino-2-[2-(4-amino-butylamino)-acetylamino]-hexyloxycarbonylamino}-hexyl ester] — within 1.5-fold, 678 nM
- NCCCC[C@H](N)COC(=O)N[C@H](CCCCN)COC(=O)N[C@H](CCCCN)COC(N)=O [Compound AA, Carbamic acid 6-amino-2-[6-amino-2-(2,6-diamino-hexyloxycarbonylamino)-hexyloxycarbonylamino]-hexyl ester] — within 1.5-fold, 639 nM
- NCCCC[C@H](COC(N)=O)NC(=O)CN(CCCCN)C(=O)[C@@H](N)CCCCN [Compound AU, Carbamic acid 6-amino-2-{2-[(4-amino-butyl)-(2,6-diamino-hexanoyl)-amino]-acetylamino}-hexyl ester] — 3.6-fold lower, 147 nM
- NCCCCCCCNCC(=O)N[C@@H](CCCCN)COC(=O)N[C@H](CCCCN)COC(N)=O [Compound AO, Carbamic acid 6-amino-2-{6-amino-2-[2-(7-amino-heptylamino)-acetylamino]-hexyloxycarbonylamino}-hexyl ester] — 4.4-fold lower, 120 nM
- NCCCCNCC(=O)N(CCCCN)CC(=O)N[C@H](CCCCN)COC(N)=O [Compound AY, Carbamic acid 6-amino-2-(2-{(4-amino-butyl)-[2-(4-amino-butylamino)-acetyl]-amino}-acetylamino)-hexyl ester] — within 1.5-fold, 403 nM
- N=C(N)NCCC[C@H](N)COC(=O)N[C@@H](CCCCN)C(=O)N[C@H](CCCCN)COC(N)=O [Compound DT, Carbamic acid 6-amino-2-[6-amino-2-(2-amino-5-guanidino-pentyloxycarbonylamino)-hexanoylamino]-hexyl ester] — 2.4-fold lower, 215 nM
- NCCCCCNCC(=O)N(CCCCCN)CC(=O)N[C@@H](CCCCN)COC(N)=O [Compound DF, Carbamic acid 6-amino-2-(2-{(5-amino-pentyl)-[2-(5-amino-pentylamino)-acetyl]-amino}-acetylamino)-hexyl ester] — 60-fold higher, 31400 nM
- NCCCCCCCNCC(=O)N(CCCCCN)CC(=O)N[C@H](CCCCN)COC(N)=O [Compound BG, Carbamic acid 6-amino-2-{2-[[2-(7-amino-heptylamino)-acetyl]-(5-amino-pentyl)-amino]-acetylamino}-hexyl ester] — within 1.5-fold, 431 nM
- N=C(N)NCCC[C@H](N)COC(=O)N(CCCCCCCN)CC(=O)N[C@H](CCCCN)COC(N)=O [Compound BR, Carbamic acid 6-amino-2-{2-[(2-amino-5-guanidino-pentyloxycarbonyl)-(7-amino-heptyl)-amino]-acetylamino}-hexyl ester] — 11-fold higher, 5590 nM
- NCCCCCCCN(CC(=O)N[C@H](CCCCN)COC(N)=O)C(=O)OC[C@@H](N)CCCCN [Compound BK, Carbamic acid 6-amino-2-{2-[(7-amino-heptyl)-(2,6-diamino-hexyloxycarbonyl)-amino]-acetylamino}-hexyl ester] — 1.8-fold higher, 930 nM

From US6583309B1 (University of Medicine and Dentistry of New Jersey, priority 1999, dated 2003)
